Test results: US12679805B2, “Bioactive substance exhibiting antimalarial activity, and use for same” (RIKEN, priority 2021, dated 2026)
Converted amounts (≈) assume the structure as drawn. “And” between values parts separate entries of the source, which are not always exact repeats. Equal values may be shown once.

Assays:
[1] = tested on: HL-60 cells; experiment: Cytotoxicity (growth inhibitory activity), HL-60 cells; type: cell-based; conditions: for IC50: Homo sapiens
Source text: (§1) Subsequently, the cytotoxicity of DHLC was examined. More specifically, the activity of DHLC to various types of cancer cells (Hela cells, HL-60 cells, MKN74 cells, NB-1 cells, T98G cells) were examined.

[2] = tested on: T98G cells; experiment: Cytotoxicity (growth inhibitory activity), T98G cells; type: cell-based
Source text: as §1

[3] = tested on: MKN74 cells; experiment: Cytotoxicity (growth inhibitory activity), MKN74 cells; type: cell-based
Source text: as §1

[4] = tested on: drug-resistant Plasmodium falciparum (K1); experiment: Antimalarial activity against chloroquine-resistant Plasmodium falciparum (K1); type: cell-based; conditions: FIG. 1
[5] = tested on: wild-type Plasmodium falciparum (pf3D7 strain); experiment: Antimalarial activity, pLDH Malstat analysis, wild-type Plasmodium falciparum (pf3D7 strain); type: cell-based
Experimental: Specifically, first, a wild-type malarial parasite, Plasmodium falciparum (pf3D7 strain) was cultured in a human type-A Rh+ erythrocyte-containing solution prepared such that the hematocrit level was 3% in a hypoxic condition (O2 concentration: 5%, CO2 concentration: 5%). A culture medium used herein was a complete medium (Gibco, RPMI 1640 medium) containing 25 mM N-(2-hydroxyethyl)piperazine-N′-2-ethanesulfonic acid (HEPES), 10 […] glucose, 5 μg/mL gentamicin and 10% bovine serum albumin. Thereafter, DHLC solutions having 16 different concentrations within the range of 0.015 nM to 500 nM as shown in Table 2 were prepared using dimethyl sulfoxide (DMSO). Subsequently, to each of the wells of a 96 well microplate, 100 μl of a culture solution containing Plasmodium falciparum (pf3D7 strain) cultured in accordance with a method as mentioned above, was added, and then, 0.5 μl of a DHLC solution different in concentration was added to each well. Three sample sets were prepared in the same manner by adding 16 DHLC solutions different in concentration to wells, and then, allowed to stand still at 37° C. for 72 hours to expose Plasmodium falciparum (pf3D7 strain) to DHLC. Note that, each well contains the complete medium (RPMI medium), and the malarial parasite concentration was 0.3% and hematocrit level was 2%. Thereafter, the 96 well microplates containing samples were frozen at −80° C. overnight, and then, thawed at room temperature to hemolyze red blood cells. Lactate dehydrogenase (pLDH), which is an intracellular metabolic enzyme of malarial parasite, in the samples contained in individual wells, was stained with a Malstat reagent (Flow Inc.) in accordance with the protocol of Malstat analysis (Am. J. Trop. Med. Hyg. 48(6), 1993, pp. 739-741) known in the art and the absorbance thereof was measured at 620 nm. Based on the results, the infection rates (%) of cells with malarial parasite, at different concentrations of DHLC were calculated. Note that, a positive control used herein was a sample prepared by adding a solution prepared by diluting an existing antimalarial drug, i.e., chloroquine diphosphate, with distilled water, to wild-type Plasmodium falciparum (pf3D7 strain). A negative control used herein was a sample prepared by adding a solution prepared by diluting DMSO with distilled water, to a wild-type Plasmodium falciparum (pf3D7 strain). For measuring a background value, an erythrocyte-containing solution not infected with Plasmodium falciparum, was used.

[6] = tested on: NB-1 cells; experiment: Cytotoxicity (growth inhibitory activity), NB-1 cells; type: cell-based; conditions: Homo sapiens, NB1
Source text: as §1

[7] = tested on: Hela cells; experiment: Cytotoxicity (growth inhibitory activity), HeLa cells; type: cell-based; conditions: for IC50: Homo sapiens
Source text: as §1

[8] = tested on: Plasmodium falciparum; conditions: reported in Non Patent Literature 1; cited from earlier work

## C\C=C(/C=C(C)/C=C/C=C/C=C(\C)C(=O)C1CC(O)(CCO)NC1=O)C(=O)OC (stereo not drawn) [DHLC]
[1]
  IC50: 3.4 µg/mL (≈ 8.43 µM)
[2]
  growth inhibitory activity (IC50 value): >30 µg/mL
[2]; Homo sapiens
  IC50: > 30 µg/mL
[3]
  growth inhibitory activity (IC50 value): >30 µg/mL
[3]; Homo sapiens, MKN-74
  IC50: > 30 µg/mL
[4]
  antimalarial activity against drug-resistant Plasmodium falciparum (K1): as high as against wild-type Plasmodium falciparum
[5]; 0.015 nM, 72 hours
  pf3D7(%) infection rate of cells with malarial parasite: 98.9%
[5]; 0.03 nM, 72 hours
  pf3D7(%) infection rate of cells with malarial parasite: 109.8%
[5]; 0.06 nM, 72 hours
  pf3D7(%) infection rate of cells with malarial parasite: 89.4%
[5]; 0.12 nM, 72 hours
  pf3D7(%) infection rate of cells with malarial parasite: 92.9%
[5]; 0.24 nM, 72 hours
  pf3D7(%) infection rate of cells with malarial parasite: 77.2%
[5]; 0.49 nM, 72 hours
  pf3D7(%) infection rate of cells with malarial parasite: 74.1%
[5]; 0.98 nM, 72 hours
  pf3D7(%) infection rate of cells with malarial parasite: 41.7%
[5]; 1.95 nM, 72 hours
  pf3D7(%) infection rate of cells with malarial parasite: 28.2%
[5]; 3.90 nM, 72 hours
  pf3D7(%) infection rate of cells with malarial parasite: 22.9%
[5]; 7.81 nM, 72 hours
  pf3D7(%) infection rate of cells with malarial parasite: 23.7%
[5]; 15.63 nM, 72 hours
  pf3D7(%) infection rate of cells with malarial parasite: 13.3%
[5]; 31.25 nM, 72 hours
  pf3D7(%) infection rate of cells with malarial parasite: 9.6%
[5]; 62.5 nM, 72 hours
  pf3D7(%) infection rate of cells with malarial parasite: 14.3%
[5]; 125 nM, 72 hours
  pf3D7(%) infection rate of cells with malarial parasite: 10.2%
[5]; 250 nM, 72 hours
  pf3D7(%) infection rate of cells with malarial parasite: 8.5%
[5]; 500 nM, 72 hours
  pf3D7(%) infection rate of cells with malarial parasite: 13.9%
[5]; Plasmodium falciparum, pf3D7 strain, 72 hours, read-out: growth inhibitory activity (IC50 value)
  IC50: 0.65 nM and 0.00026 µg/mL
[5]; versus NG-391 IC50=0.75 μg/ml
  antimalarial activity relative to NG-391: ≥ 1000 times
[5]; versus lucilactaene IC50=0.063 μg/ml
  antimalarial activity relative to lucilactaene: ≥ 100 times
[6]
  IC50: 0.34 µg/mL (≈ 0.843 µM)
[7]
  IC50: 21 µg/mL (≈ 52 µM)

## C\C=C(/C=C(C)/C=C/C=C/C=C(\C)C(=O)[C@]12O[C@H]1C(O)(CCO)NC2=O)C(=O)OC (stereo partly drawn) [NG-391]
[1]
  IC50: 6.6 µg/mL (≈ 15.8 µM)
[7]
  IC50: 5.9 µg/mL (≈ 14.1 µM)
[8]
  antimalarial activity IC50: 0.75 µg/mL

## C\C=C(/C=C(C)/C=C/C=C/C=C(\C)C(=O)[C@H]1C(=O)N[C@]2(O)CCO[C@H]12)C(=O)OC [Lucilactaene]
[1]
  IC50: 7 µg/mL (≈ 17.4 µM)
[7]
  IC50: 10 µg/mL (≈ 24.9 µM)
[8]
  antimalarial activity IC50: 0.063 µg/mL
  antimalarial effect relative to NG-391: about 12 times

## C\C=C(/C=C(C)/C=C/C=C/C=C(\C)C(=O)[C@H]1C(=O)N[C@]2(O)CCO[C@H]12)C(=O)O [Demethyl lucilactaene]
[1]
  growth inhibitory activity (IC50 value): >30 µg/mL
[7]
  growth inhibitory activity (IC50 value): >30 µg/mL
